In brackets after ≈: the same amount, converted by molar mass.
Details: buffer; pH 7.4; 200.0 µM

Compound	solubility kinetic
Cc1ccc(C(=O)N/C(=C\c2cccs2)C(=O)N2CCOCC2)cc1C	> 55.6 µg/mL
COC(=O)c1ccc(/C=N/OCC(=O)NCc2ccc(F)cc2)cc1	10.3 µg/mL (≈ 29.9 µM)
Cc1ccc(S(=O)(=O)NCc2ccccc2)s1	> 40.1 µg/mL
NC(=O)c1cc(S(=O)(=O)N2CCCCC2)cs1	> 41.2 µg/mL
O=C(COc1ccc(-n2ccnc2)cc1)Nc1cccc(Cl)c1	23.7 µg/mL (≈ 72.3 µM)
CC(C)(C)NC(=O)C(=O)NNC(=O)c1cccc([N+](=O)[O-])c1	> 46.2 µg/mL
Cc1ccn2c(NC3CCCC3)c(-c3ccncc3)nc2c1	35.3 µg/mL (≈ 121 µM)
C[C@]12C=CC(=O)C=C1CC[C@@H]1C2=CC[C@]2(C)[C@@H](C(=O)CN3CCN(c4cc(N5CCCC5)nc(N5CCCC5)n4)CC3)CC[C@@H]12.O=C(O)/C=C\C(=O)O	48.2 µg/mL
O=C(O)c1ccccc1NCCO	24 µg/mL (≈ 132 µM)
Fc1ccc2nc(Nc3ccccc3)sc2c1	0.5 µg/mL (≈ 2.05 µM)
Cc1ccc(C(=O)N/C(=C\c2cn(C)c3ccccc23)C(=O)OCCN(C)C)cc1	58.9 µg/mL (≈ 145 µM)
COc1ccc(Cl)cc1S(=O)(=O)Nc1noc2ccccc12	47 µg/mL (≈ 139 µM)
O=S(=O)(Cc1ccccc1)Nc1ccccc1Br	40.6 µg/mL (≈ 124 µM)
Cc1[nH]c2ccc(F)cc2c1CCN1C(=O)OC(C)(C)C1(C)O (stereo not given)	> 48.1 µg/mL
CC1CCN(C(=O)COc2cccc3c2CCN(C)C3=O)CC1	> 47.5 µg/mL
O=[N+]([O-])c1ccc(CNc2cccc(F)c2)s1	17.6 µg/mL (≈ 69.8 µM)
O=C(CNC1CCCCC1)Nc1cccc([N+](=O)[O-])c1	31.4 µg/mL (≈ 113 µM)
COc1ccc(CC(=O)NC2CCCCCC2)c(OC)c1	37.6 µg/mL (≈ 129 µM)
Cc1ccnc(SCC(=O)NC2CC2)n1	> 33.5 µg/mL
Cc1ccccc1Cn1c(C)cc(C)c(C#N)c1=O	8.1 µg/mL (≈ 32.1 µM)

Compound	solubility kinetic
O=C(CN1C(=O)c2ccccc2S1(=O)=O)Nc1cccc(S(=O)(=O)N2CCCCC2)c1	34.4 µg/mL (≈ 74.2 µM)
Cc1ccc(C(=O)NCCNS(=O)(=O)c2ccccc2)cn1	> 47.9 µg/mL
CNC(=O)c1ccc(NC(=O)Nc2ccccc2)cc1	6.6 µg/mL (≈ 24.5 µM)
Cc1ccccc1C(=O)NC1CCN(C(=O)NC2CCCCC2)CC1	6.5 µg/mL (≈ 18.9 µM)
Cc1cc(C)c(C(=O)Nc2ccc(C)c(C)c2)c(CC(C)(C)C(=O)O)c1	> 53 µg/mL
CCCCOc1ccc(C(=O)NCCOc2cccc(OC)c2)cc1	4 µg/mL (≈ 11.6 µM)
O=C(NCc1ccccn1)C1CC(c2ccccc2Cl)=NO1 (stereo not given)	> 47.4 µg/mL
COc1ccc(CCC(=O)OCC(=O)Nc2ccccc2)cc1	> 47 µg/mL
Cc1ccc(C(=O)OCC(=O)NC2CCS(=O)(=O)C2)c(C)c1 (stereo not given)	> 48.8 µg/mL
CCCCNC(=O)COC(=O)c1cc(C)oc1C	> 38 µg/mL
O=C(CN1C(=O)NC2(CCCC2)C1=O)NCC1CCCO1 (stereo not given)	38.5 µg/mL (≈ 130 µM)
CC1CC(C)(C)NC(=S)N1CC(=O)NCc1ccc2c(c1)OCO2 (stereo not given)	36.2 µg/mL (≈ 104 µM)
O=C(Nc1c(C(=O)O)[nH]c2ccccc12)c1cccc(C(F)(F)F)c1	> 52.2 µg/mL
CNCC(=O)Nc1ccc(OC(F)(F)F)cc1.Cl	41.4 µg/mL
CN(C(=O)c1ccc2nccnc2c1)C1CCCCC1	> 40.4 µg/mL
COc1ccc(C2=NCC(=S)Nc3ccc(Cl)cc32)cc1OC	< 0.4 µg/mL
CCS(=O)(=O)N1CCC(C(=O)Nc2cccc(F)c2)CC1	> 47.2 µg/mL
CCOCCCn1c(SCC(=O)N2CCOCC2)nc2ccccc2c1=O	> 58.7 µg/mL
COc1ccc(C(O)Cc2nccn2C)cc1 (stereo not given)	> 34.8 µg/mL
COc1ccc(C(=O)NC(=S)N(C)C2CCCCC2)cc1	5.5 µg/mL (≈ 17.9 µM)

Compound	solubility kinetic
CCOC(=O)c1c(C)[nH]c(C)c1C(=O)COC(=O)c1cccnc1Cl	> 54.7 µg/mL
Cc1ccc(C(=O)Nc2ncc([N+](=O)[O-])s2)cc1	27 µg/mL (≈ 103 µM)
Cc1cc(F)ccc1NCc1ccc([N+](=O)[O-])cc1	0.3 µg/mL (≈ 1.15 µM)
CCCCC(=O)Nc1cc([N+](=O)[O-])ccc1F	31.8 µg/mL (≈ 132 µM)
O=C(CC(c1ccccc1)c1ccccc1)Nc1ccc(C(=O)O)cc1	> 51.8 µg/mL
O=S(=O)(CCN1CCOCC1)c1ccccc1	> 38.3 µg/mL
Cc1cnc(NC(=O)C2CC=CCC2)s1 (stereo not given)	23.9 µg/mL (≈ 108 µM)
CC(=O)Nc1nc(C)c(C(C)(C)C)s1	> 31.8 µg/mL
Nc1nc(SCCO)[nH]c(=O)c1NC(=O)c1ccco1	> 44.4 µg/mL
Cc1ccc(NC(=O)c2cccnc2)cc1C	> 33.9 µg/mL
CC(NC(=S)Nc1ccccc1)C(c1cccs1)N1CCOCC1 (stereo not given)	3.1 µg/mL (≈ 8.57 µM)
CCCn1c(CCl)nc2cc(S(=O)(=O)N3CCOCC3)ccc21	0.6 µg/mL (≈ 1.68 µM)
CCCc1ccc(C(=O)/C=C/N(C)C)cc1	26.9 µg/mL (≈ 124 µM)
CCOc1ccccc1C1NC(=O)CCC1[N+](=O)[O-] (stereo not given)	> 39.6 µg/mL
Nc1ccc(N2CCN(c3ccccc3)CC2)c(F)c1	> 40.7 µg/mL
CCOc1ncccc1C(=O)NCCc1ccc(OC)cc1	> 45.1 µg/mL
COc1ccc(C(=O)OCC(=O)NC(=O)NC2CCCC2)c(O)c1	4.1 µg/mL (≈ 12.2 µM)
COc1cc(NC(=O)C(c2ccccc2)c2ccccc2)c(C(=O)O)cc1OC	> 58.7 µg/mL
Cc1nn(-c2ccccc2)c(C)c1CN	> 30.2 µg/mL
c1ccc(CCCN2CCN(c3ccccn3)CC2)cc1	26.8 µg/mL (≈ 95.2 µM)
